Source: patent publication US20080176838A1, “Dpp-IV Inhibitors” (SANTHERA PHARMACEUTICALS (DEUTSCHLAND) AG, priority 2004, published 2008)

The molecules below were run against T1, DPP-IV (Homo sapiens, UniProt P27487) (assay: Continuous fluorimetric assay of inhibition of DPP-IV peptidase activity (cleavage of Gly-Pro-AMC)). Conditions: substrate Gly-Pro-AMC 16 μM, pH 7.4, 25° C., 1% DMSO.
T1 construct: Soluble human DPP-IV lacking the transmembrane anchor (Gly31-Pro766); Pre-Pro-alpha-mating factor leader (secretion fusion) (N, cleaved yes); made in house
T1 sequence (P27487 31-766): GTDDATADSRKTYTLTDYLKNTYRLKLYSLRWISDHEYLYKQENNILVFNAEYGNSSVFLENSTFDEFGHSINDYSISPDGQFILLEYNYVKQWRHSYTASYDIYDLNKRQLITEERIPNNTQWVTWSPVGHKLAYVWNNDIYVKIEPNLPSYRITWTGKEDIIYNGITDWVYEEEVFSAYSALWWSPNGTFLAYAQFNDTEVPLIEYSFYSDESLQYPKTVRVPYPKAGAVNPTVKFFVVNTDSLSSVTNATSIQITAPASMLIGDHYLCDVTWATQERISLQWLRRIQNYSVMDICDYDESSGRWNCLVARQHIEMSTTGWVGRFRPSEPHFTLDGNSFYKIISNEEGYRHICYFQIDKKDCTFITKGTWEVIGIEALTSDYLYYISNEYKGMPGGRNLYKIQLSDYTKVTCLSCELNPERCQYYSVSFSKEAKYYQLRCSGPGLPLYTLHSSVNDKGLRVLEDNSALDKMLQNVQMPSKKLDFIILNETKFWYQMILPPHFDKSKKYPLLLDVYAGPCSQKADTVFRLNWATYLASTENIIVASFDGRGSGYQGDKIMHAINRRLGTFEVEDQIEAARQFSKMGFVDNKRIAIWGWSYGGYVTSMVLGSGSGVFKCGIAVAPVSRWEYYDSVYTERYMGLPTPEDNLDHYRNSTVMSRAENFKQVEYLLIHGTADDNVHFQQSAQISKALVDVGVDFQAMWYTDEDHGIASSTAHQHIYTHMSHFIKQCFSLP
Assay type: biochemical
Procedure: Inhibition of DPP-IV peptidase activity was monitored with a continuous fluorimetric assay. This assay is based on the cleavage of the substrate Gly-Pro-AMC (Bachem) by DPP-IV, releasing free AMC. The assay is carried out in 96-well microtiterplates. In a total volume of 100 μL, compounds are preincubated with […] DPP-IV employing a buffer containing 10 mM Hepes, 150 mM NaCl, 0.005% Tween 20 (pH 7.4). […] The final concentration of DMSO is 1%. The inhibitory potential of the compounds were determined.
Soluble human DPP-IV lacking the transmembrane anchor (Gly31-Pro766) was expressed in a recombinant YEAST-strain as Pre-Pro-alpha-mating fusion.

| Structure (SMILES) | IC50 [nM] |
| --- | --- |
| N[C@@H](CCN1CCC[C@H]1CNS(=O)(=O)c1ccccc1)Cc1ccccc1F [Example 25] | < 100 |
| COC[C@@H]1CCCN1CC[C@H](N)Cc1ccccc1F [Example 48] | 101 to 1000 |
| N[C@@H](CCN1CCOCC1CNS(=O)(=O)C1CC1)Cc1ccccc1F (some centres unmarked) [Example 35] | 101 to 1000 |
| N[C@@H](CCN1CCC[C@H]1CNS(=O)(=O)C1CC1)Cc1ccccc1F [Example 29] | < 100 |
| N[C@@H](CCN1Cc2ccccc2C[C@H]1C(=O)NC1CC1)Cc1ccccc1F [Example 26] | 101 to 1000 |
| CS(=O)(=O)NC[C@@H]1CCCN1CC[C@H](N)Cc1ccccc1F [Example 30] | < 100 |
| N#Cc1cccc(S(=O)(=O)NC[C@@H]2CCCN2CC[C@H](N)Cc2ccccc2F)c1 [Example 31] | < 100 |
| N[C@@H](CCN1Cc2ccccc2C[C@H]1CNC(=O)C1CC1)Cc1ccccc1F [Example 28] | 101 to 1000 |
| N[C@@H](CCN1CCC[C@H]1COc1cccc(F)c1)Cc1cccc(Cl)c1 [Example 45, (1R)-(3-Chloro-benzyl)-3-[(2S)-(3-fluoro-phenoxymethyl)-pyrrolidin-1-yl]-propylamine] | < 100 |
| N[C@@H](CCN1Cc2ccccc2C[C@H]1COc1cccc(F)c1)Cc1ccccc1F [Example 47] | 101 to 1000 |
| N[C@@H](CCN1CCC[C@H]1COCc1ccccc1)Cc1ccccc1F [Example 44, (1R)-3-[(2S)-2-Benzyloxymethyl-pyrrolidin-1-yl]-1-(2-fluoro-benzyl)-propylamine] | 101 to 1000 |
| N[C@@H](CCN1CCC[C@H]1CNC(=O)C1CC1)Cc1ccccc1F [Example 27, Cyclopropanecarboxylic acid {1-[(3R)-amino-4-(2-fluoro-phenyl)-butyl]-pyrrolidin-(2S)-ylmethyl}-amide] | < 100 |
| N[C@@H](CCN1CCC[C@H]1CNS(=O)(=O)CC(F)(F)F)Cc1ccccc1F [Example 33] | < 100 |
| N[C@@H](CCN1CCC[C@H]1COc1cccc(F)c1)Cc1ccccc1F [Example 46] | < 100 |
